Test results reported in patent US20190116795A1, “USE OF TENVERMECTIN IN CONTROL OF HARMFUL INSECTS IN AGRICULTURAL AND FOREST CROPS” (ZHEJIANG HISUN PHARMACEUTICAL CO., LTD., priority 2016, published 2019).
Converted amounts (≈) assume the structure as drawn. Where two headings read alike, the source gives them in different places.

Tests used:
[1] = test system: Laodelphax striatellus imagoes; test: whole plant or invertebrate; conditions: for Relative toxicity: maximum LC50 divided by LC50 of each agent, imidacloprid = 1
Experimental: Each original medicine was dissolved in DMF and formulated into a 10000 mg/L solution for later use.
Test insect source: The Laodelphax striatellus imagoes were collected in the rice fields of Jiaxing, Zhejiang, and were raised indoors with rice seedlings.
The soaking seedling method was used in this test. The test agents were diluted with tap water into five series of concentrations on the basis of pre-test to be used as test solutions. Specifically, lambda-cyhalothrin and imidacloprid were diluted to 5 mg/L, 10 mg/L, 25 mg/L, 50 mg/L and 100 mg/L; abamectin was diluted to 0.25 mg/L, 0.5 Mg/L, 1.0 mg/L, 2.5 mg/L and 5.0 mg/L; tenvermectin A was diluted to 0.05 mg/L, 0.10 mg/L, 0.25 mg/L, 0.5 mg/L and 1.0 mg/L. Rice seedlings that are sown indoors for about 25 days and have no rice planthopper eggs were taken, a few rice roots were left, the seedlings were soaked in pre-formed solution for 30 seconds then they were taken out and dried, and were put into a 3 cm×20 cm test tube. There was a little water at the bottom of the tube. 2-3 rice seedlings per tube, three repetitions per treatment, and the one treated with water was used as a control. Each tube receives 40-50 heads of Laodelphax striatellus, and the tubes were sealed with black cloth and were placed in a worm room under a temperature of (26±1) ° C. After 72 hours of treatment, the number of dead insects was checked. […] Experimental data statistics and analysis were performed using spss 19 software.
The relative toxicity index of the agent having the largest LC50 was set to be 1, and the relative toxicity index of each agent was determined by dividing the maximum LC50 by the LC50 value of each agent.

cabbage Phyllotreta = test: Field efficacy test against cabbage Phyllotreta; assay type: in vivo; conditions: 1 day, 3 days and 7 days after medication
Experimental: In the laboratory, the above-mentioned original medicines were respectively formulated into the following formulations for later use: 1.8% abamectin emulsifiable concentrate, 1.8% tenvermectin A emulsifiable concentrate, 1.8% tenvermectin B emulsifiable concentrate, 5% imidacloprid emulsifiable concentrate, 5% acetamiprid emulsifiable concentrate, 2.5% lambda-cyhalothrin emulsifiable concentrate.
The test was conducted in Linhai City, and the test crop was cabbage, and the object to be controlled was Phyllotreta.
The experiment consisted of 7 treatments, 3 replicates per treatment, 21 sections in total. The sections were randomly arranged, the area for each section was 66.7 m^2. A type of knapsack manual sprayer was used to spray once, the amount of each section was calculated according to the amount of 50 ml/mu, and the leaves were sprayed evenly. Each treatment was isolated from each other to avoid mutual interference. A blank control was set, and the blank control was sprayed with water. The population base of insects was investigated before medication, and the number of live insects was investigated 1 day, 3 days, and 7 days after medication, and a total of 4 investigations were conducted. 20 plants were randomly investigated per section. The rate of reduction of population was calculated and the control effect was corrected. No other pesticides were used during the test. […]

[2] = test system: Coptotermes formosanus Shiraki; test: Indoor toxicity against Coptotermes formosanus Shiraki, topical drop with microinjector; assay type: in vivo; conditions: for Relative toxicity: maximum LC50 divided by LC50 of each agent, abamectin = 1
Experimental: Specifically, abamectin was diluted to 0.01 mg/L, 0.025 mg/L, 0.05 mg/L, 0.10 mg/L and 0.25 mg/L; tenvermectin A and tenvermectin B were diluted to 0.001 mg/L, 0.0025 mg/L, 0.005 mg/L, 0.01 mg/L and 0.025 mg/L. The termites to be tested were placed in culture dishes with a diameter of 15 cm, and 20 worker ants were placed in each dish. During the test, a microinjector was used to drop 1 μI of the solution to the thorax and abdome of each termite for a total of 3 repetitions. One fungus comb was placed in each dish for termites to inhabit and a wet absorbent cotton ball was placed to moisturize. After completing dropping the solution, the culture dish was placed in a chamber under a constant temperature of 18±1° C. and a constant humidity and was cultivated in dark conditions, the death conditions were observed 24 hours and 48 hours after dropping the solution respectively. A writing brush was used to touch the various parts of the bodies of the termites and the termites that are completely immobile were judged to be dead.

zebrafish = test: Toxicity test on zebrafish, semi-static method; assay type: in vivo, Brachydanio rerio
Experimental: Test fish and water: zebrafish (Brachydanio rerio) were purchased from Zhejiang Academy of Agricultural Sciences and were of uniform size with an average body length of 2-3 cm and an average body weight of 0.3 g. They were domesticated for 7 days indoors before the test. The natural mortality rate was zero. Feeding was stopped 1 day before the test and the fish were not fed during the test. The test water was tap water after removing residual chlorine by exposure to the sun for more than 24 hours, and the pH was 6.8.
The sample was formulated into 50 mg/ml mother liquor with DMF.
Method: Semi-static method. Three level differences were set for each sample:
0.5 ppm, 1.0 ppm and 2.0 ppm, and three sets of parallels were set for each level difference, 10 zebrafish were raised for each group, and blank controls (one group without agents and one group with only solvent) were set. The corresponding volume of mother liquor was taken according to the concentration as required for each sample, and the volume of each sample was adjusted to 150 μl with DMF, and then each sample was added to the test group (containing 1.6 L of water). The room temperature was controlled at 22±2° C. for 96 hours, and the water was changed every 24 hours and the samples were re-added. The fish mortality rate was recorded for the first 8 hours and at 24, 48, 72, and 96 hours, and the dead fish were removed in time. Finally, the agents were divided into three grades according to the values of LC50: low-toxic pesticides with a LC50>10 ppm, middle-toxic pesticides with a LC50 of 1.0-10 ppm, and high-toxic pesticides with a LC50<1.0 ppm.

Bemisia tabaci imagoes = test: Indoor toxicity against Bemisia tabaci imagoes, liquid membrane impregnation method of blades; assay type: in vivo; conditions: for Relative toxicity: maximum LC50 divided by LC50 of each agent, acetamiprid = 1
Experimental: The liquid membrane impregnation method of blades was used. […] One tomato leaf was placed in each culture dish. Three repetitions per treatment, a leaf was soaked with water, dried, and then was placed in a culture dish to be used as a control. The Bemisia tabaci imagoes were gently patted into the culture dish, about 30 to 40 imagoes in each dish. The dishes were sealed with plastic wrap, several small holes were made on the plastic wrap to facilitate ventilation. After 24 hours, the death of Bemisia tabaci imagoes was checked under a binocular microscope (the anatomical needle was used to gently touch the Bemisia tabaci imagoes, and the motionless ones were regarded to be dead). Experimental data statistics and analysis were performed with spss 19 software.

[3] = test system: Nilaparvata lugens imagoes; test: Indoor toxicity against Nilaparvata lugens imagoes, soaking seedling method; assay type: in vivo; conditions: for LC50: Nilaparvata lugens imagoes, soaked rice seedlings, 72 hours, 26±1 °C; for Relative toxicity: maximum LC50 divided by LC50 of each agent, imidacloprid = 1
Source text: Test insect source: the Nilaparvata lugens imagoes were collected from the rice field in Jiaxing, Zhejiang and were raised indoors with rice seedlings.
The soaking seedling method was used in this test.

[4] = test system: Frankliniella occidentalis Pergande imagoes; test: Indoor toxicity against Frankliniella occidentalis Pergande imagoes, impregnation method; assay type: in vivo; conditions: for LC50: Frankliniella occidentalis Pergande imagoes, impregnation, 48 hours after medication, 26 °C; for Relative toxicity: maximum LC50 divided by LC50 of each agent, imidacloprid = 1
Source text: The impregnation method was used. […] The quantitative Frankliniella occidentalis Pergande (15-20 heads) in the suction trap were flicked into the solution in the insect box, and the solution was gently stirred with a glass rod for 10 seconds, and the insect box was quickly removed from the solution, and when the solution was drained out from the insect box, the residual solution on the copper net was blotted with absorbent paper from the bottom of the insect box, and then a 3 cm long kidney bean slice (Frankliniella occidentalis Pergande feed) was put into the insect box, and finally the insect box was sealed with a parafilm. […] The sealed insect box was placed in a HPG280H light incubator under a temperature of 26° C. and a humidity of 70%.

[5] = Bemisia tabaci imagoes, soaked tomato leaves, death checked after 24 hours
[6] = Laodelphax striatellus, in Oryza sativa, 72 h

`CO[C@H]1CC(OC2[C@H](C)OC(OC3/C(C)=C/C[C@@H]4C[C@@H](C[C@]5(CCC(C)[C@@H](C)O5)O4)OC(=O)[C@@H]4C=C(C)[C@@H](O)[C@H]5OC/C(=C\C=C\C3C)[C@]54O)C[C@@H]2OC)O[C@@H](C)C1O` (some centres unmarked) [Tenvermectin A, tenvermectin A] was tested, and the LC50 ([1]; in vivo) was 0.296 µg/mL (≈ 0.355 µM), the Relative toxicity [1] was 107.490 and the “control effect on cabbage Phyllotreta (in words)” value (cabbage Phyllotreta) was “no control effect”. The LC50 ([2]; in vivo) was 0.0086 µg/mL (≈ 0.0103 µM), the Relative toxicity [2] was 4.77 and the “Surviving condition (survival rate %)” value (zebrafish; 0.5 ppm, 8 h) was 100%. The “Surviving condition (survival rate %)” value (zebrafish; 0.5 ppm, 24 h) was 100%, the “Surviving condition (survival rate %)” value (zebrafish; 0.5 ppm, 48 h) was 100% and the “Surviving condition (survival rate %)” value (zebrafish; 0.5 ppm, 72 h) was 100%. For the same molecule, the “Surviving condition (survival rate %)” value (zebrafish; 0.5 ppm, 96 h) was 100%, the “Surviving condition (survival rate %)” value (zebrafish; 1.0 ppm, 8 h) was 100% and the “Surviving condition (survival rate %)” value (zebrafish; 1.0 ppm, 24 h) was 100%. The “Surviving condition (survival rate %)” value (zebrafish; 1.0 ppm, 48 h) was 100%, the “Surviving condition (survival rate %)” value (zebrafish; 1.0 ppm, 72 h) was 100% and the “Surviving condition (survival rate %)” value (zebrafish; 1.0 ppm, 96 h) was 100%. For the same molecule, the “Surviving condition (survival rate %)” value (zebrafish; 2.0 ppm, 8 h) was 100%, the “Surviving condition (survival rate %)” value (zebrafish; 2.0 ppm, 24 h) was 100% and the “Surviving condition (survival rate %)” value (zebrafish; 2.0 ppm, 48 h) was 100%. For the same molecule, the “Surviving condition (survival rate %)” value (zebrafish; 2.0 ppm, 72 h) was 93%, the “Surviving condition (survival rate %)” value (zebrafish; 2.0 ppm, 96 h) was 80% and the LC50 (Bemisia tabaci imagoes; [5]) was 0.023 µg/mL (≈ 0.0276 µM). The Relative toxicity (Bemisia tabaci imagoes) was 110.478.

In the case of `O=[N+]([O-])NC1=NCCN1Cc1ccc(Cl)nc1` [Imidacloprid], the LC50 [1, 6] was 31.8 µg/mL (≈ 124 µM), the Relative toxicity [1] was 1 and the LC50 ([3]; read-out: LC50) was 33.9 µg/mL (≈ 132 µM). The Relative toxicity [3] was 1, the LC50 ([4]; read-out: LC50) was 39.1 µg/mL (≈ 153 µM) and the Relative toxicity [4] was 1.

In the case of Abamectin, the LC50 ([1]; Laodelphax striatellus imagoes, soaked rice seedlings, 72 hours, 26±1 °C) was 3.101 µg/mL, the Relative toxicity [1] was 10.260 and the LC50 ([2]; Coptotermes formosanus worker ants, 1 μl dropped per termite, 18±1 °C, observed 24 and 48 hours (time of LC50 not stated)) was 0.041 µg/mL. It also gave a Relative toxicity [2] of 1, an LC50 [3] of 3.062 µg/mL and a Relative toxicity [3] of 11.063. The “Surviving condition (survival rate %)” value (zebrafish; 0.5 ppm, 8 h) was 0%, the “Surviving condition (survival rate %)” value (zebrafish; 1.0 ppm, 8 h) was 0% and the “Surviving condition (survival rate %)” value (zebrafish; 2.0 ppm, 8 h) was 0%. The LC50 (Bemisia tabaci imagoes; [5]) was 0.225 µg/mL, the Relative toxicity (Bemisia tabaci imagoes) was 11.293 and the LC50 [4] was 2.648 µg/mL. For the same molecule, the Relative toxicity [4] was 14.759.

`CC[C@H](C)C1O[C@]2(C=C[C@@H]1C)C[C@@H]1C[C@@H](C/C=C(\C)[C@@H](O[C@H]3C[C@H](OC)[C@@H](O[C@H]4C[C@H](OC)[C@H](NC)[C@H](C)O4)[C@H](C)O3)[C@@H](C)/C=C/C=C3\CO[C@@H]4[C@H](O)C(C)=C[C@@H](C(=O)O1)[C@]34O)O2.O=C(O)c1ccccc1` (some centres unmarked) [Methylamino abamectin benzoate] was tested, and the “Surviving condition (survival rate %)” value (zebrafish; 0.5 ppm, 8 h) was 0%, the “Surviving condition (survival rate %)” value (zebrafish; 1.0 ppm, 8 h) was 0% and the “Surviving condition (survival rate %)” value (zebrafish; 2.0 ppm, 8 h) was 0%. The LC50 [4] was 0.318 µg/mL and the Relative toxicity [4] was 122.896.

With `CC[C@H]1O[C@]2(CCC1C)C[C@@H]1C[C@@H](C/C=C(\C)C(OC3C[C@H](OC)C(OC4C[C@H](OC)C(O)[C@H](C)O4)[C@H](C)O3)C(C)/C=C/C=C3\CO[C@@H]4[C@H](O)C(C)=C[C@@H](C(=O)O1)[C@]34O)O2` (some centres unmarked) [Tenvermectin B, tenvermectin B] the “control effect on cabbage Phyllotreta (in words)” value (cabbage Phyllotreta) was “no control effect”, the LC50 ([2]; in vivo) was 0.0066 µg/mL (≈ 0.00779 µM) and the Relative toxicity [2] was 6.21. The “Surviving condition (survival rate %)” value (zebrafish; 0.5 ppm, 8 h) was 100%, the “Surviving condition (survival rate %)” value (zebrafish; 0.5 ppm, 24 h) was 70% and the “Surviving condition (survival rate %)” value (zebrafish; 0.5 ppm, 48 h) was 50%. For the same molecule, the “Surviving condition (survival rate %)” value (zebrafish; 0.5 ppm, 72 h) was 0%, the “Surviving condition (survival rate %)” value (zebrafish; 1.0 ppm, 8 h) was 53% and the “Surviving condition (survival rate %)” value (zebrafish; 1.0 ppm, 24 h) was 0%. For the same molecule, the “Surviving condition (survival rate %)” value (zebrafish; 2.0 ppm, 8 h) was 10% and the “Surviving condition (survival rate %)” value (zebrafish; 2.0 ppm, 24 h) was 0%.

For Ivermectin, the “Surviving condition (survival rate %)” value (zebrafish; 0.5 ppm, 8 h) was 0%, the “Surviving condition (survival rate %)” value (zebrafish; 1.0 ppm, 8 h) was 0% and the “Surviving condition (survival rate %)” value (zebrafish; 2.0 ppm, 8 h) was 0%.

`C/C(=N\C#N)N(C)Cc1ccc(Cl)nc1` [Acetamiprid] gave an LC50 (Bemisia tabaci imagoes; Bemisia tabaci, in Solanum lycopersicum, 24 h) of 2.54 µg/mL (≈ 11.4 µM) and a Relative toxicity (Bemisia tabaci imagoes) of 1.

`CC1(C)[C@H](C(=O)O[C@H](C#N)c2cccc(Oc3ccccc3)c2)[C@@H]1/C=C(\Cl)C(F)(F)F` (racemic) [Lambda-cyhalothrin] showed an LC50 [1, 6] of 12 µg/mL (≈ 26.7 µM), a Relative toxicity [1] of 2.648 and an LC50 ([3]; read-out: LC50) of 17.7 µg/mL (≈ 39.4 µM). The Relative toxicity [3] was 1.923.

Milbemycin was tested, and the “Surviving condition (survival rate %)” value (zebrafish; 0.5 ppm, 8 h) was 0%, the “Surviving condition (survival rate %)” value (zebrafish; 1.0 ppm, 8 h) was 0% and the “Surviving condition (survival rate %)” value (zebrafish; 2.0 ppm, 8 h) was 0%. It also gave an LC50 (Bemisia tabaci imagoes; in vivo) of 0.210 µg/mL and a Relative toxicity (Bemisia tabaci imagoes) of 12.100.
